{
  "source": "patent US7906620B2",
  "about": "“Tumor associated antigen, peptides thereof, and use of same as anti-tumor vaccines” (Yeda Research and Development Co. Ltd., priority 2002, dated 2011)",
  "key": {"[1]": {"tested_on": "peptide loaded on labeled RMA-S/HHD", "test": "Immunogenicity of peptides in HHD mice: vaccination with peptide-loaded RMA-S/HHD/B7.1, cytolytic assay on peptide-loaded targets", "type": "in vivo", "conditions": "for Score: immunogenic score: ratio of specific lysis, specific peptide vs tyrosinase peptide loaded on RMA-S/HHD, average of two experiments, positive above 125%; for antigenic / immunogenic in HHD mice: mouse, in vivo", "experimental": "FIG. 4 is a graph of the results of in vitro cytolytic assays. Seven peptides are immunogenic. Peptides were loaded on RMA-S/HHD/B7.1, washed and irradiated. HHD mice were immunized three times as described in the materials and methods section in Example 1. In vitro cytolytic assays were performed on the relevant peptide as target and on an irrelevant peptide. The score was deduced from the ratio of the specific lysis that were obtained. The positive peptides (above 125%) are marked by arrows. Peptides 1-6, 3-5 and 3-7 are derived from “Human 1-8D gene”.\nVaccination. HHD mice were immunized i.p. 3 times at 7-day intervals with 2×10^6 irradiated (5000 rad) tumor cells, or irradiated peptide-loaded RMA-S/HHD/B7.1 transfectants. Spleens were removed on day 10 after the last immunization, and splenocytes were restimulated in vitro, either with irradiated tumor cells or with one third of the lymphocytes pre-pulsed with 100 μM synthetic peptides in opti-MEM (Life Technologies) for 2 hr at 37° C., 5% CO2. Restimulated lymphocytes were cultured in RPMI-HEPES medium containing 10% FCS, 2 mM glutamine, combined antibiotics, 1 mM sodium pyruvate, 25 mM HEPES, 5×10^−5M PME and 1% NEAA for 5 days. Viable cells (effectors) were separated by Lympholyte-M (Cedarlane, Hornby, Canada) gradient, resuspended and admixed at different ratios with 5,000 ^35S-methionine-labeled target cells. Cytolytic assays were carried out as described previously in Carmon et al., 2000. Extracts of tumor peptides or normal colon peptides were prepared from a pool of 6 post-surgical colon carcinoma specimens as described before Carmon et al., 2000.\nThe antigenic peptides were tested for their specific immunogenicity in HHD mice. HHD mice were vaccinated with RMA-S/HHD/B7.1 cells loaded with each of the peptides (listed in Table 3), their spleens were removed, and resensitized in vitro with synthetic peptides for four days. On the fifth day, a cytolytic assay was performed on two targets, either the peptide itself loaded on labeled RMA-S/HHD or the tyrosinase peptide as a negative control. The ratio of specific lysis between specific and tyrosinase peptides was defined as “immunogenic score”. This experiment was repeated twice and the average score of each of the antigenic peptides is specified (Table 3 and FIG. 4). The horizontal line in FIG. 4 represents the limit of 95% significance as defined by assuming normal distribution of scores."}, "T2 cells": {"tested_on": "T2 cells", "test": "In vitro priming of human CTL with prostate peptides, cytolytic assay on peptide pulsed T2 cells", "type": "cell-based", "conditions": "three healthy and two CaP individuals", "experimental": "FIGS. 16A-16D are graphs showing in vitro priming of human CTLs. PBMC of leukopheresis samples were isolated and in vitro CTL primed with peptide pulsed autologous DC. PBMC were supplemented with IL-7 and two days later IL-2 was added and renewed every three days. Additional two cycles of re-stimulation were done every 7 days over peptide pulsed monocytes. Seven days after the last stimulation cytolytic assay was performed using peptide pulsed or non-pulsed T2 cells as target. In FIG. 16A, PBMC derived from CaP individual (donor A) were primed and re-stimulated with STEAP-3 pulsed DC/monocytes. Target cells: relevant (STEAP-3) and non-relevant peptide (HIV-derived, PAP-3) pulsed T2 cells. In FIG. 16B, PBMC derived from healthy individual (donor B) were primed and restimulated with PAP-3 pulsed DC/monocytes. Target cells: relevant (PAP-3) and non-relevant peptide (HIV-derived, STEAP-3) pulsed T2 cells. PBMC derived from healthy individual (donor C) were primed and restimulated with either PAP-3 (C-1; FIG. 16C) or STEAP-3 (C-2; FIG. 16D) pulsed DC/monocytes. Relevant (PAP-3 or STEAP-3) peptide pulsed and non-pulsed T2 cells were used as targets.\nFIGS. 17A-17C are graphs showing peptide specific CTL induced in human PBMC by PAP-3 (FIG. 17A), STEAP-3 (FIG. 17B), and PSGR-1 (FIG. 17C). PBMC from a healthy donor were stimulated by peptide pulsed DC as described and CTL activity was tested on homologous peptide pulsed T2 target cells (HLA-A2 lymphoma, TAP deficient).\nFinally, peripheral blood of two healthy (donors B, C) and one CaP (donor A) individuals were tested for the existence of CTL precursors (FIGS. 16A-16D). Leukopheresis products of the donors were obtained from Barzilai Medical Center (Ashkelon, Israel) according to Declaration of Helsinki Principles. PBMC were isolated by centrifugation on Ficoll-Plaque Plus gradients (Amersham, Sweden). In vitro priming of CTL was done over autologous DC that were prepared from monocytes by IL-4 and GM-CSF treatment and maturated with a IL-1β, IL-6, TNF-α and PGE2 cocktail. DC were pulsed with synthetic peptides and PBMC were supplemented with IL-7. Two days later, IL-2 was added and renewed every three days. Two additional re-stimulations were done every 7 days over peptide pulsed monocytes. Seven days after the third stimulation, lymphocytes were harvested and a cytolytic assay was performed using relevant/non-relevant peptide pulsed or non-pulsed at all T2 cells.\n(§1) When human PBMC are stimulated in vitro by PAP-3 and STEAP-3 peptides, the resulting CTL can lyse target cells (T2, EL4/HHD) pulsed with PAP-3, STEAP-3 or PSGR-1 and PSGR-6 peptides. (FIGS. 15 and 16). Here, these findings were expanded and peripheral blood of three healthy and two CaP individuals was tested for the existence of CTL precursors against PAP-3, STEAP-3 and PSGR-1 peptides. Leukopheresis products of the donors were obtained from Barzilai Medical Center (Ashkelon, Israel) according to Declaration of Helsinki Principles. PBMC were isolated by centrifugation on Ficoll-Plaque Plus gradients (Amersham, Sweden). In vitro priming of CTL was done over autologous DC that were prepared from monocytes by IL-4 and GM-CSF treatment and matured with a IL-1β, IL-6, TNF-α and PGE2 cocktail. DC were pulsed with synthetic peptides and PBMC were supplemented with IL-7. Two days later, IL-2 was added and renewed every three days. Two additional re-stimulations were done every 7 days over peptide pulsed monocytes. Seven days after the third stimulation, lymphocytes were harvested and a cytolytic assay was performed using relevant/non-relevant peptide pulsed or non-pulsed T2 cells (FIGS. 17A-17C) and LNCaP (high and low HLA expressors) cells as targets (FIGS. 18A-18E). […] Monitoring of HLA-A2-peptide specific CD8+ cells for PAP-3 and STEAP-3 was also performed by MHC-peptide tetramers (tetramers of recombinant HLA-A2.1-beta2 microglobulin single chain with peptides were prepared in collaboration with Dr Yoram Reiter, Technion, Haifa). […]"}, "LNCaP": {"tested_on": "LNCaP", "test": "Lysis of LNCaP tumor cells by human anti-peptide CTL", "type": "cell-based", "conditions": "LNCaP high and low HLA expressors as targets", "source_text": "FIGS. 18A-18E are graphs showing that human anti-peptide CTL from a healthy donor kills LNCaP tumor cells. PBMC from a healthy donor (FIGS. 18A-18C) or a CaP patient (FIGS. 18D-18E) were stimulated with PAP-3 (FIGS. 18A, 18D), STEAP-3 (FIGS. 18B, 18E) or PSGR-1 (FIG. 18C) as described. LNCaP/CRL1740 (LNCaP high in HLA-A2.1 expression), LNCaP/CRL10995 (LNCaP low in HLA-A2.1 expression) and PC3 (negative for HLA-A2.1) served as targets in CTL assays.\nas §1"}},
  "data": [
    {"sequence": "DLQETLVKI (listed as Homo sapiens) [Peptide 3-6, Human chaperonin like protein 316-324]", "values": [
      {"measurement": "Score", "setting": "[1]", "result": 84.6}
    ]},
    {"sequence": "ILLVMGVDV (listed as Homo sapiens) [PSGR-1, PSGR start position 202]", "values": [
      {"measurement": "activation of CTL precursors in PBMC derived from CaP patients and healthy donors", "setting": "T2 cells", "result": "activated CTL precursors"},
      {"measurement": "lysis of tumor cells expressing endogenously processed proteins", "setting": "LNCaP", "result": "lyse tumor cells"}
    ]},
    {"sequence": "ALGFYPAEI (listed as Homo sapiens) [Peptide 3-3]", "values": [
      {"measurement": "Score", "setting": "[1]", "result": 93.6}
    ]},
    {"sequence": "SIAEFFSDI (listed as Homo sapiens) [Peptide 3-2, Human TB2 gene 105-113]", "values": [
      {"measurement": "Score", "setting": "[1]", "result": 143.2},
      {"measurement": "antigenic / immunogenic in HHD mice", "setting": "[1]", "result": "antigenic and immunogenic"}
    ]},
    {"sequence": "ALRGHSHFV (listed as Homo sapiens) [Peptide 1-8, Human MHC protein homologous to chicken B complex 58-66]", "values": [
      {"measurement": "Score", "setting": "[1]", "result": 106.7}
    ]},
    {"sequence": "IPMGKSMLV (listed as Homo sapiens) [Peptide 2-2, Insulin like growth factor II 3-11]", "values": [
      {"measurement": "Score", "setting": "[1]", "result": 9.5}
    ]},
    {"sequence": "GQQSTVSDV (listed as Homo sapiens) [Peptide 1-5]", "values": [
      {"measurement": "Score", "setting": "[1]", "result": 125.0}
    ]},
    {"sequence": "IVDDITYNV (listed as Homo sapiens) [Peptide 1-11]", "values": [
      {"measurement": "Score", "setting": "[1]", "result": 126.8},
      {"measurement": "antigenic / immunogenic in HHD mice", "setting": "[1]", "result": "antigenic and immunogenic"}
    ]},
    {"sequence": "VLYDELKKV (listed as Homo sapiens) [Peptide 1-1, Human ADP/ATP translocase 253-261]", "values": [
      {"measurement": "Score", "setting": "[1]", "result": 121.7}
    ]},
    {"sequence": "WVVYGVFSI (listed as Homo sapiens) [Peptide 3-4, Human TB2 gene 98-106]", "values": [
      {"measurement": "Score", "setting": "[1]", "result": 90.9}
    ]},
    {"sequence": "KIEDNNTLV (listed as Homo sapiens) [Peptide 2-3, Human ribosomal protein L23a mRNA 89-97]", "values": [
      {"measurement": "Score", "setting": "[1]", "result": 150.0},
      {"measurement": "antigenic / immunogenic in HHD mice", "setting": "[1]", "result": "antigenic and immunogenic"}
    ]},
    {"sequence": "MLTINGKAI (listed as Homo sapiens) [Peptide 3-1, Transforming growth factor beta induced gene 343-351]", "values": [
      {"measurement": "Score", "setting": "[1]", "result": 147.1},
      {"measurement": "antigenic / immunogenic in HHD mice", "setting": "[1]", "result": "antigenic and immunogenic"}
    ]},
    {"sequence": "VQPQSPVAV (listed as Homo sapiens) [Peptide 1-3]", "values": [
      {"measurement": "Score", "setting": "[1]", "result": 112.0}
    ]},
    {"sequence": "VIATNILLV (listed as Homo sapiens) [Peptide 1-9, Human chaperonin-like protein 368-346]", "values": [
      {"measurement": "Score", "setting": "[1]", "result": 69.7}
    ]},
    {"sequence": "LLVIIPVLV (listed as Homo sapiens) [Peptide 1-2, Human 1-8D gene from interferon inducible gene 119-127]", "values": [
      {"measurement": "Score", "setting": "[1]", "result": 108.3}
    ]},
    {"sequence": "TLQLSRAPV (listed as Homo sapiens) [Peptide 1-12, Human mRNA for dipeptidase 223-231]", "values": [
      {"measurement": "Score", "setting": "[1]", "result": 107.9}
    ]},
    {"sequence": "ALPDETEVV (listed as Homo sapiens) [Peptide 2-1, Human osteonectin 23-31]", "values": [
      {"measurement": "Score", "setting": "[1]", "result": 115.0}
    ]},
    {"sequence": "TILTAVLLV (listed as Homo sapiens) [Peptide 1-10, Human defensin 6 5-13]", "values": [
      {"measurement": "Score", "setting": "[1]", "result": 97.5}
    ]},
    {"sequence": "FELAAESDV (listed as Homo sapiens) [Peptide 1-4, Transforming growth factor beta induced gene 380-338]", "values": [
      {"measurement": "Score", "setting": "[1]", "result": 83.3}
    ]},
    {"sequence": "IQQYGHQEV (listed as Homo sapiens) [Peptide 1-7]", "values": [
      {"measurement": "Score", "setting": "[1]", "result": 94.6}
    ]}
  ]
}
